Reference: PubChem BioAssay (NCI)
Where “and” joins values, the source holds several entries; their conditions need not be identical. Identical values can stand only once.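 Grown in 96-well plates, cells were treated for 48 hours with each compound at five concentrations. Insufficient inhibition: endpoint recorded as highest concentration tested. GI50 = concentration required for 50% inhibition of growth. TGI: concentration producing complete growth inhibition.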

What was measured:
Assay in all cases: NCI-60 cell line screen, 48 h
[1] = tested on: HL-60(TB) leukemia
[2] = tested on: NCI-H460 lung
[3] = tested on: SK-MEL-5 melanoma
[4] = tested on: COLO 205 colon
[5] = tested on: TK-10 renal
[6] = tested on: SK-OV-3 ovarian
[7] = tested on: SN12C renal
[8] = tested on: CCRF-CEM leukemia
[9] = tested on: U251 CNS
[10] = tested on: EKVX NSCLC

Row | SMILES | GI50 [1] [µM] | TGI [1] | GI50 [2] [µM] | TGI [2] | GI50 [3] [µM] | TGI [3] | GI50 [4] [µM] | TGI [4] | GI50 [5] [µM] | TGI [5] | GI50 [6] [µM] | TGI [6] | GI50 [7] [µM] | TGI [7] | GI50 [8] [µM] | TGI [8] | GI50 [9] [µM] | TGI [9] | GI50 [10] [µM] | TGI [10]
1 | COc1cc2c(cc1OC)-c1ccc3cc4c(cc3c1N(CCN(C)C)C2)OCO4 | 0.25 | 0.681 µM | 0.256 | 1.2 µM | 1.39 | 3.01 µM | 0.37 | 1.92 µM | 2.03 | 7.39 µM | 0.518 | 3.2 µM | 0.35 | 4.4 µM | 0.148 | 3.73 µM | 0.215 | 1.23 µM | 1.33 | 13.7 µM
2 | CCCCN=C(NC#N)N(Cc1ccccc1)Cc1ccccc1 |  | 49.6 µM |  | > 100 µM |  | 26.1 µM |  | 32.5 µM |  | > 100 µM |  | 87.6 µM |  | 82 µM |  | 49.2 µM |  | 81.3 µM |  | 74.9 µM
3 | COc1cc(C=O)c(-c2cc3c(cc2C2(C)OCCS2)OCO3)c(OC)c1OC (stereo not given) |  | 82.1 µM |  | > 75.6 µM |  | 35.3 µM |  | 16.1 µM |  | > 205 µM |  | > 239 µM |  | 49.8 µM |  | > 160 µM |  | 72 µM |  | > 97 µM
4 | CCCCCCCC(=O)OCC1OC(n2cc(F)c(=O)[nH]c2=O)C(NC(=O)OCc2ccccc2)C(O)C1O (stereo not given) |  | > 100 µM |  | > 100 µM |  | 23.7 µM |  | > 100 µM |  | > 100 µM |  | > 100 µM |  | > 100 µM |  | > 100 µM |  | > 100 µM |  | > 100 µM
5 | OC(C1CO1)C(O)C1CO1 (stereo not given) | 2.33 | 65.2 µM and 49.5 µM | 2.14 | 53.5 µM and 140 µM | 43.9 | 85.6 µM and 164 µM | 124 | 127 µM and 285 µM | 182 | 150 µM and 404 µM | 5.68 | 95.2 µM and 186 µM | 13.9 | 126 µM and 249 µM | 1.53 | 120 µM and 392 µM | 7.78 | 114 µM and 168 µM | 175 | 150 µM and 348 µM
6 | CN1C(=O)C(=Cc2cn(Cc3ccccc3)c3ccccc23)C(=O)N(C)C1=O | > 43.4 | > 100 µM | 1.24 | > 100 µM | 25.7 | > 100 µM | 0.712 | 6.67 µM | 4.28 | 56.5 µM | 6.16 | > 100 µM | 54.8 | > 100 µM | > 77.6 | > 100 µM | 18.2 | > 71.3 µM | 35.8 | > 100 µM
7 | O=C1NC(=O)C(c2ccc(Cl)cc2)=C1Nc1ccc(Cl)c(C(=O)O)c1 | > 25 | > 25 µM | > 25 | > 25 µM | > 25 | > 25 µM | > 25 | > 25 µM | > 25 | > 25 µM | > 25 | > 25 µM | > 25 | > 25 µM | > 25 | > 25 µM | > 25 | > 25 µM | > 25 | > 25 µM
8 | O=[P+](O)c1cc2ccccc2c2ccccc12 |  | > 100 µM |  | > 100 µM |  | > 100 µM |  | > 100 µM |  | > 100 µM |  | > 100 µM |  | > 100 µM |  | > 100 µM |  | > 100 µM |  | > 100 µM
9 | COc1cc(-c2csc(NC(=O)Nc3cc(C(F)(F)F)cc(C(F)(F)F)c3)n2)cc(OC)c1OC | 2.43 | 6.89 µM | 2.74 | 10.8 µM | 1.57 | 3.24 µM | 1.8 | 3.45 µM | 2.45 | 10.3 µM | 2.59 | 8.57 µM | 3 | 11.8 µM | 2.26 | 7.83 µM | 2.73 | 10.7 µM | 2.38 | 13.9 µM
10 | Clc1ccc(C(c2ccc(Cl)cc2)N2CCNCC2)cc1 |  | 4.57 µM |  | 4.65 µM |  | 3.64 µM |  | 4.28 µM |  | 3.74 µM |  | > 44.3 µM |  | 8.52 µM |  | 15.3 µM |  | 4.2 µM |  | 10.4 µM
11 | COc1ccc2nc(NCN3C(=O)c4ccccc4C3=O)sc2c1 |  | > 100 µM |  | > 100 µM |  | > 100 µM |  | > 100 µM |  | > 100 µM |  | > 100 µM |  | > 100 µM |  | > 100 µM |  | > 100 µM |  | > 100 µM
12 | CN(C(=O)C12C3(C(=O)C(C)(C)C)C4C5(C#N)C3C1(C(=O)C(C)(C)C)C5C42C(=O)C(C)(C)C)C(C)(C)C (stereo not given) |  | > 50 µM |  | > 50 µM |  | > 50 µM |  | > 50 µM |  | > 50 µM |  | > 50 µM |  | > 50 µM |  | > 50 µM |  | > 50 µM |  | > 50 µM
13 | COc1ccc(-c2cn(-c3cccc(C(=O)/C=C/c4ccc(O)c(OC)c4)c3)c(=O)[nH]2)cc1 | 2.5 | 16 µM | 3.21 | 10.4 µM | 2.69 | 11 µM | 4.79 | 15.3 µM | 7.38 | > 85.4 µM | 4.32 | 48.6 µM | 3.47 | > 100 µM | 1.19 | 5.81 µM | 2.86 | 15.3 µM | 8.4 | > 100 µM
14 | O=C1C(Cl)=C(Nc2cccc(O)c2)C(=O)N1Cc1ccc(Cl)cc1 | 0.993 | 11 µM | 2.87 | 14 µM | 5.69 | 21.1 µM | 3.38 | 20.8 µM | 5.86 | 19.8 µM | 3.7 | 19.9 µM | 2.72 | 8.5 µM | 2.98 | > 100 µM | 1.86 | 26.9 µM | 13.6 | 48.6 µM
15 | CCn1c2ccc(C(=O)CCCN(C)C)cc2c2cc(C(=O)CCCN(C)C)ccc21 |  | 3.78 µM |  | 2.61 µM |  | 17.1 µM |  | 6.92 µM |  | 13.2 µM |  | 22.1 µM |  | 5.87 µM |  | 10.1 µM |  | 8.46 µM |  | 6.79 µM
16 | N#Cc1ccc(Nc2cnc3ccc(N)cc3n2)cc1 |  | > 100 µM |  | > 100 µM |  | > 100 µM |  | > 100 µM |  | > 100 µM |  | > 100 µM |  | > 100 µM |  | > 100 µM |  | > 100 µM |  | > 100 µM
17 | O=C(O)c1ccc([S-])cc1.[Au+].c1ccc(CN2[CH-]N(Cc3ccccc3)C(c3ccccc3)=C2c2ccccc2)cc1 | 0.321 | 1.29 µM | 0.328 | 1.28 µM | 0.281 | 1.03 µM | 0.269 | 0.824 µM | 0.613 | 1.98 µM | 0.352 | 1.39 µM | 0.305 | 1.3 µM | 0.356 | 2.72 µM | 0.321 | 1.36 µM | 0.274 | 1.53 µM
18 | CC(=O)OCc1ccc(O)c(C=O)c1 |  | > 100 µM |  | > 100 µM |  | > 100 µM |  | > 100 µM |  | > 100 µM |  | > 100 µM |  | > 100 µM |  | > 100 µM |  | > 100 µM |  | > 100 µM
19 | Cc1ccc(C(=O)/C(=C\c2ccc([N+](=O)[O-])cc2)S(=O)Cc2ccc(F)cc2)cc1 (stereo not given) | 1.67 | 5.02 µM | 1.89 | 3.85 µM | 1.76 | 3.32 µM | 1.92 | 3.76 µM | 1.72 | 3.28 µM | 10.8 | 23.2 µM | 1.7 | 3.42 µM | 0.752 | > 100 µM | 1.66 | 3.22 µM | 1.78 | 3.8 µM
20 | Cc1ccc(C(=O)N2CCN(C(=O)c3ccc(C)cc3)c3ccccc32)cc1 |  | 4.21 µM |  | > 100 µM |  | 43.5 µM |  | 32.2 µM |  | > 100 µM |  | 25 µM |  | > 100 µM |  | > 100 µM |  | 24.9 µM |  | > 100 µM
21 | CCC(=O)C(C)C(=O)C(=O)C(=O)OC (stereo not given) |  | > 64.4 µM |  | > 100 µM |  | > 100 µM |  | > 100 µM |  | > 100 µM |  | > 100 µM |  | > 100 µM |  | > 69.1 µM |  | > 68.2 µM |  | > 100 µM
